Reference: publication PMC7872314, “Modeling Bioavailable Concentrations in Zebrafish Cell Lines and Embryos Increases the Correlation of Toxicity Potencies across Test Systems” (Environmental Science & Technology, 2020)
pEC50, pIC50: −log10 of the molar value. Where two headings read alike, the source gives them in different places.

Columns and labels:
[1] = system: ZFL (hepatocytes) cell line; assay: cells; type: cell-based, zebrafish (Danio rerio); conditions: Danio rerio, Hepatocyte
[2] = system: ZFL (hepatocytes) cell line; assay: cells; type: cell-based, zebrafish (Danio rerio); conditions: Danio rerio, Hepatocyte; remark: listed apart in the source
[3] = system: ZFL (hepatocytes) cell line; assay: cells; type: cell-based, zebrafish (Danio rerio); conditions: Danio rerio, Hepatocyte; remark: listed apart in the source
[4] = system: ZF4 (fibroblasts) cell line; assay: BCA assay (MTS/BCA multiplex), protein amount; type: cell-based, zebrafish (Danio rerio); conditions: Danio rerio, Fibroblast
zebrafish embryos [5] = system: zebrafish embryos; design: method as in earlier work; conditions: nominal, cited from earlier work
[6] = system: ZF4 (fibroblasts) cell line; assay: ATP assay (ATP/LDH multiplex), ATP metabolism; type: cell-based, zebrafish (Danio rerio); conditions: Danio rerio, Fibroblast
[7] = system: ZF4 (fibroblasts) cell line; assay: Neutral red, absorbance (NRa), AB/CFDA/NR multiplex, lysosome stability; type: cell-based, zebrafish (Danio rerio); conditions: Danio rerio, Fibroblast
[8] = system: ZFL (hepatocytes) cell line; assay: cells; type: cell-based, zebrafish (Danio rerio); conditions: Danio rerio, Hepatocyte; remark: listed apart in the source
[9] = system: ZF4 (fibroblasts) cell line; assay: alamarBlue (AB) endpoint of AB/CFDA/NR multiplex, cellular respiration; type: cell-based, zebrafish (Danio rerio); conditions: Danio rerio, Fibroblast
zebrafish embryos [10] = assay: animal or person; type: in vivo, zebrafish (Danio rerio); conditions: for EC50 / pEC50: Danio rerio
[11] = system: ZFL (hepatocytes) cell line; assay: cells; type: cell-based, zebrafish (Danio rerio); conditions: Danio rerio, Hepatocyte; remark: listed apart in the source
[12] = system: ZF4 (fibroblasts) cell line; assay: Neutral red, fluorescence (NRf), AB/CFDA/NR multiplex, lysosome stability; type: cell-based, zebrafish (Danio rerio); conditions: Danio rerio, Fibroblast
ZF4 and ZFL cell lines = assay: Cytotoxicity assays, all endpoints, both cell lines (mean/range); type: cell-based, zebrafish (Danio rerio); conditions: 48 h
[13] = system: ZF4 (fibroblasts) cell line; assay: MTS assay (MTS/BCA multiplex), NAD(P)H metabolism; type: cell-based, zebrafish (Danio rerio); conditions: Danio rerio, Fibroblast
[14] = system: zebrafish cell lines vs zebrafish embryo; assay: Potency ratios IC50;x/EC50;x (cytotoxicity assays vs mFET); design: species or system zebrafish (Danio rerio)
[15] = system: ZFL (hepatocytes) cell line; assay: cells; type: cell-based, zebrafish (Danio rerio); conditions: Danio rerio, Hepatocyte; remark: listed apart in the source
[16] = system: ZFL (hepatocytes) cell line; assay: cells; type: cell-based, zebrafish (Danio rerio); conditions: Danio rerio, Hepatocyte; remark: listed apart in the source
[17] = ref Comptox, PubChem or DrugBank; cited from earlier work
[18] = system: ZF4 (fibroblasts) cell line; assay: CFDA endpoint of AB/CFDA/NR multiplex, membrane stability; type: cell-based, zebrafish (Danio rerio); conditions: Danio rerio, Fibroblast

SMILES: CC1(C)C(C=C(Cl)c2ccc(Cl)cc2)C1C(=O)OC(C#N)c1ccc(F)c(Oc2ccccc2)c1 (centres unmarked) [Flumethrin, flumethrin]
- IC50 ([1]; MTS - ZFL, log10 of IC50, read-out: LogIC50 (converted)): 414 µM
- pIC50 ([1]; MTS - ZFL, read-out: IC50): 3.38
- IC50 ([1]; ZFL, 48 h exposure, nominal, log10, read-out: logIC50 (log10 IC50;nom) MTS (converted)): 417 µM
- pIC50 ([1]; ZFL, 48 h exposure, nominal, read-out: IC50;nom MTS): 3.38
- IC50 ([2]; BCA - ZFL, log10 of IC50, read-out: LogIC50 (converted)): 6130 µM
- pIC50 ([2]; BCA - ZFL, read-out: IC50): 2.21
- IC50 ([2]; ZFL, 48 h exposure, nominal, log10, read-out: logIC50 (log10 IC50;nom) BCA (converted)): 6170 µM
- pIC50 ([2]; ZFL, 48 h exposure, nominal, read-out: IC50;nom BCA): 2.21
- IC50 ([3]; CFDA - ZFL, log10 of IC50, read-out: LogIC50 (converted)): 118 µM
- pIC50 ([3]; CFDA - ZFL, read-out: IC50): 3.93
- IC50 ([3]; ZFL, 48 h exposure, nominal, log10, read-out: logIC50 (log10 IC50;nom) CFDA (converted)): 117 µM
- pIC50 ([3]; ZFL, 48 h exposure, nominal, read-out: IC50;nom CFDA): 3.93
- IC50 ([4]; BCA - ZF4, log10 of IC50, read-out: LogIC50 (converted)): 42.1 µM
- pIC50 ([4]; BCA - ZF4, read-out: IC50): 4.38
- IC50 ([4]; ZF4, 48 h exposure, nominal, log10, read-out: logIC50 (log10 IC50;nom) BCA (converted)): 41.7 µM
- pIC50 ([4]; ZF4, 48 h exposure, nominal, read-out: IC50;nom BCA): 4.38
- pEC50 (zebrafish embryos [5]; 144 hpf, converted): 6.67
- logEC50 144 hpf (zebrafish embryos [5]; log10): -6.667 M
- IC50 ([6]; ATP - ZF4, log10 of IC50, read-out: LogIC50 (converted)): 317 µM
- pIC50 ([6]; ATP - ZF4, read-out: IC50): 3.50
- IC50 ([6]; ZF4, 48 h exposure, nominal, log10, read-out: logIC50 (log10 IC50;nom) ATP (converted)): 316 µM
- pIC50 ([6]; ZF4, 48 h exposure, nominal, read-out: IC50;nom ATP): 3.50
- IC50 ([7]; NR-abs - ZF4, log10 of IC50, read-out: LogIC50 (converted)): 104 µM
- pIC50 ([7]; NR-abs - ZF4, read-out: IC50): 3.98
- IC50 ([7]; ZF4, 48 h exposure, nominal, log10, read-out: logIC50 (log10 IC50;nom) NRa (converted)): 105 µM
- pIC50 ([7]; ZF4, 48 h exposure, nominal, read-out: IC50;nom NRa): 3.98
- IC50 ([7]; ZF4 cell line, NRa endpoint, nominal, read-out: IC50;nom): 53.1 µg/mL
- IC50 ([8]; AB - ZFL, log10 of IC50, read-out: LogIC50 (converted)): 244 µM
- pIC50 ([8]; AB - ZFL, read-out: IC50): 3.61
- IC50 ([8]; ZFL, 48 h exposure, nominal, log10, read-out: logIC50 (log10 IC50;nom) AB (converted)): 245 µM
- pIC50 ([8]; ZFL, 48 h exposure, nominal, read-out: IC50;nom AB): 3.61
- IC50 ([9]; AB - ZF4, log10 of IC50, read-out: LogIC50 (converted)): 351 µM
- pIC50 ([9]; AB - ZF4, read-out: IC50): 3.46
- IC50 ([9]; ZF4, 48 h exposure, nominal, log10, read-out: logIC50 (log10 IC50;nom) AB (converted)): 347 µM
- pIC50 ([9]; ZF4, 48 h exposure, nominal, read-out: IC50;nom AB): 3.45
- difference in toxicity (EC50;nom) between 48 hpf and 144 hpf (zebrafish embryos [10]; 48 hpf time point less sensitive than 144 hpf): approximately the same
- log EC50;nom (mFET) (zebrafish embryos [10]; 48 hpf, nominal, log10, listed as Flu): -6.562 M
- EC50 (zebrafish embryos [10]; 48 hpf, nominal, log10, read-out: log EC50;nom (mFET) (converted)): 0.275 µM
- EC50 (zebrafish embryos [10]; 48 hpf, nominal, read-out: EC50;nom (embryo)): 0.14 µg/mL
- pEC50 (zebrafish embryos [10]; read-out: EC50 48hpf): 6.56
- pEC50 (zebrafish embryos [10]; read-out: EC50;nom (mFET)): 6.56
- IC50 ([11]; NR-fluo - ZFL, log10 of IC50, read-out: LogIC50 (converted)): 159 µM
- pIC50 ([11]; NR-fluo - ZFL, read-out: IC50): 3.80
- IC50 ([11]; ZFL, 48 h exposure, nominal, log10, read-out: logIC50 (log10 IC50;nom) NRf (converted)): 158 µM
- pIC50 ([11]; ZFL, 48 h exposure, nominal, read-out: IC50;nom NRf): 3.80
- IC50 ([12]; NR-fluo - ZF4, log10 of IC50, read-out: LogIC50 (converted)): 213 µM
- pIC50 ([12]; NR-fluo - ZF4, read-out: IC50): 3.67
- IC50 ([12]; ZF4, 48 h exposure, nominal, log10, read-out: logIC50 (log10 IC50;nom) NRf (converted)): 214 µM
- pIC50 ([12]; ZF4, 48 h exposure, nominal, read-out: IC50;nom NRf): 3.67
- IC50 (ZF4 and ZFL cell lines; Danio rerio, read-out: Mean log IC50nom, mean of all cytotoxicity endpoints (without LDH) in ZF4 and ZFL, 48 h, log10 (converted)): 229 µM
- Mean log IC50nom (ZF4 and ZFL cell lines; mean of all cytotoxicity endpoints (without LDH) in ZF4 and ZFL, log10, listed as Flu): -3.637 M
- IC50 ([13]; MTS - ZF4, log10 of IC50, read-out: LogIC50 (converted)): 83.1 µM
- pIC50 ([13]; MTS - ZF4, read-out: IC50): 4.08
- IC50 ([13]; ZF4, 48 h exposure, nominal, log10, read-out: logIC50 (log10 IC50;nom) MTS (converted)): 83.2 µM
- pIC50 ([13]; ZF4, 48 h exposure, nominal, read-out: IC50;nom MTS): 4.08
- in vitro toxicity (IC50;free) higher than EC50;nom ([14]; ZF4 NRa endpoint vs embryo): 10 fold
- potency ratio IC50;nom/EC50;nom (median) ([14]; median over cytotoxicity endpoints, nominal, 48 h cells / 48 hpf mFET): 698
- difference in sensitivity between embryo (EC50;nom) and cells (IC50;nom) ([14]; nominal concentrations, higher potency in the mFET): two to three log-scales more sensitive in the mFET
- potency ratio IC50;nom/EC50;nom, BCA-ZFL endpoint ([14]; single endpoint BCA-ZFL, less sensitive in the cell-based assay): 10,000 fold
- IC50 ([15]; ATP - ZFL, log10 of IC50, read-out: LogIC50 (converted)): 441 µM
- pIC50 ([15]; ATP - ZFL, read-out: IC50): 3.36
- IC50 ([15]; ZFL, 48 h exposure, nominal, log10, read-out: logIC50 (log10 IC50;nom) ATP (converted)): 437 µM
- pIC50 ([15]; ZFL, 48 h exposure, nominal, read-out: IC50;nom ATP): 3.36
- IC50 ([16]; NR-abs - ZFL, log10 of IC50, read-out: LogIC50 (converted)): 160 µM
- pIC50 ([16]; NR-abs - ZFL, read-out: IC50): 3.80
- IC50 ([16]; ZFL, 48 h exposure, nominal, log10, read-out: logIC50 (log10 IC50;nom) NRa (converted)): 158 µM
- pIC50 ([16]; ZFL, 48 h exposure, nominal, read-out: IC50;nom NRa): 3.80
- Physiological charge [17]: 0
- logKoa [17]: 11.7
- logKow [17]: 6.97
- IC50 ([18]; CFDA - ZF4, log10 of IC50, read-out: LogIC50 (converted)): 170 µM
- pIC50 ([18]; CFDA - ZF4, read-out: IC50): 3.77
- IC50 ([18]; ZF4, 48 h exposure, nominal, log10, read-out: logIC50 (log10 IC50;nom) CFDA (converted)): 170 µM
- pIC50 ([18]; ZF4, 48 h exposure, nominal, read-out: IC50;nom CFDA): 3.77
